Read-outs that look alike come from different tables or passages of the source. Marks after values point to notes of the source that are not given here.
Columns and labels:
MethA fibrosarcoma = conditions: for percent inhibition relative to the control values of group 1, Day 21 / percent inhibition relative to the control values of group 1, Day 28: + means increase; for Effect on tumor growth (antitumoral / antiproliferative), in words: MethA fibrosarcoma model, 3-100 mg/kg once weekly i.p.; for Tumor volume Day 21 / Tumor volume Day 28: median of 10 animals, once weekly i.p.
From the text: The substances, 5-fluoro-2′-deoxyuridine-5′-phosphoric acid-(3-dodecyl-thio-2-decyloxy)propylester (substance A) and 3′-azido-3′-deoxythymidine-5′-phosphoric acid-(3-dodecylthio-2-decyloxy)propylester (substance B), have been tested in the murine MethA fibrosarcoma model, amongst other tests, under in-vivo conditions for their antitumoral or antiproliferative potency and efficacy.
MethA fibrosarcoma cells were propagated intraperitoneal (i.p.) in the form of ascites tumor in female CB6F1 mice (Charles River Laboratories, Sulzfeld, Germany). For the entire duration of the tests, the animals were kept in macrolon cages under laminar flow conditions at 23±1° C. room temperature, 55±15% relative humidity and a light-dark cycle of 12 h each. […] Prior to enrolment in the corresponding experiment, the animals were accustomed to the conditions for at least 14 days. The animals were routinely checked for infection by murine viruses.
To test the active substance, female CB6F1 mice 6-8 weeks of age were inoculated with 1×10^5 MethA fibrosarcoma cells per mouse by the subcutaneous (s.c.) route. The tumor growth in control group mice and in animals of the verum-treated groups was determined regularly in weekly intervals by measuring the two perpendicular tumor diameters as described in Hermann D. B. J., Pahlke W., Opitz H.-G. and Bicker U., Cancer Treatment Reviews, 17, 247-252, 1990. The test substances were tested in a dose-dependent fashion with once weekly i.p. administration in phosphate-buffered saline (PBS). Animals in the control group were treated with placebo (PBS).
Tumor volumes on days 21 and 28 after tumor cell inoculation are expressed as medians of 10 animals per experimental group.

K562 cells = experiment: Proliferation experiments with combinations, WST-1 colorimetry; type: cell-based; conditions: for reduction of the IC50 value of the combination partner in combination with substance A: substance A at a concentration just short of an antiproliferative effect
Protocol: The effect of the combination containing substance A and cisplatin, doxorubicin, vincristine, and camptothecin, was tested in proliferation experiments. For this purpose, substance A was dissolved in medium at a stock concentration of 1 mg/ml. The other substances were dissolved in water or DMSO (dimethylsulfoxide) at the same stock concentration of 1 mg/ml. The series' of experiments were performed in 96-well plates. […] Cells in the absence of substance and pure medium served as the controls. The in-vitro activity of the test substances was determined by colorimetry on the basis of cleavage of the tetrazolium salt, WST-1 (Roche Molecular Biochemicals, Mannheim, Del.). For this purpose, the cultures were incubated with 10 μl WST for 4 hours. Then the plates were shaken gently. The optical density was measured with an ELISA reader (Spectra MAX 340PC, Molecular Devices, Ismaning, Del.) at wavelengths from 440 to 650 nm. The IC50 value was determined for each substance. In the case of the combination, one of the substances was used at a concentration just short of showing an antiproliferative effect and the IC50 value of the combination was then determined after the addition of the second substance.

[1] = for Blood levels: HB / Blood levels: HCT / Blood levels: MCH / Blood levels: MCHC / Blood levels: MCV / Blood levels: PLT / Blood levels: RBC / Blood levels: WBC / Organ weight: Brain / Organ weight: Colon / Organ weight: Heart / Organ weight: Intestines / Organ weight: Kidney / Organ weight: Liver / Organ weight: Lungs / Organ weight: Ovaries / Organ weight: Spleen / Organ weight: Stomach / Bone marrow cell count: mean ± SEM; for Bone marrow cell count: 10 animals; for Body weight: median
Protocol: Substance A was tested in female NMRI mice for its tolerability. The animals were kept under the same conditions as described in Example 1.
Female NMRI mice, 6-8 weeks of age (Charles River Laboratories, Sulzfeld, Germany), were treated with 1 or 1.5 g/kg of substance A administered by an esophageal probe. Subsequently, the following toxicity parameters were determined: • Blood counts, including white blood cell concentration (WBC), red blood cells concentration (RBC), hemoglobin (HB), hematocrit (HCT), platelet concentration (PLT), mean corpuscular volume (MCV), mean corpuscular hemoglobin (MCH) and mean corpuscular hemoglobin concentration (MCHC), • Bone marrow cell count, i.e. number of bone marrow cells per femur (M/femur), • Body weight • Organ weights, including weight of colon, heart, brain, intestines, lungs, liver, stomach, spleen, kidneys, ovaries.

[2] = 3 mg/kg/application, day 21 after tumor cell inoculation
[3] = partner at a concentration just short of an antiproliferative effect
[4] = very high dosage (1 or 1.5 g/kg)

Structure (SMILES): CCCCCCCCCCCCSCC(COP(=O)(O)OC[C@H]1O[C@@H](n2cc(C)c(=O)[nH]c2=O)C[C@@H]1N=[N+]=[N-])OCCCCCCCCCC (some centres unmarked) [Substance B, 3′-azido-3′-deoxythymidine-5′-phosphoric acid-(3-dodecylthio-2-decyloxy)propylester, reference compound]
- percent inhibition relative to the control values of group 1, Day 21 (MethA fibrosarcoma; 3 mg/kg/application, day 21): 0.8%
- percent inhibition relative to the control values of group 1, Day 28 (MethA fibrosarcoma; 3 mg/kg/application): +4.1%
- percent inhibition relative to the control values of group 1, Day 21 (MethA fibrosarcoma; 30 mg/kg/application, day 21): +1.7%
- percent inhibition relative to the control values of group 1, Day 28 (MethA fibrosarcoma; 30 mg/kg/application): +1.4%
- percent inhibition relative to the control values of group 1, Day 21 (MethA fibrosarcoma; 100 mg/kg/application, day 21): 0.3%
- percent inhibition relative to the control values of group 1, Day 28 (MethA fibrosarcoma; 100 mg/kg/application): +2.8%
- Effect on tumor growth (antitumoral / antiproliferative), in words (MethA fibrosarcoma): no antitumoral or antiproliferative properties
- Tumor volume Day 21 (MethA fibrosarcoma; [2]): 3.998 mm^3
- Tumor volume Day 28 (MethA fibrosarcoma; 3 mg/kg/application): 10.228 mm^3
- Tumor volume Day 21 (MethA fibrosarcoma; 30 mg/kg/application, day 21): 4.102 mm^3
- Tumor volume Day 28 (MethA fibrosarcoma; 30 mg/kg/application): 9.963 mm^3
- Tumor volume Day 21 (MethA fibrosarcoma; 100 mg/kg/application, day 21): 4.021 mm^3
- Tumor volume Day 28 (MethA fibrosarcoma; 100 mg/kg/application): 10.098 mm^3

Structure (SMILES): CC[C@]1(O)C[C@H]2CN(CCc3c([nH]c4ccccc34)[C@@](C(=O)OC)(c3cc4c(cc3OC)N(C=O)[C@H]3[C@@](O)(C(=O)OC)[C@H](OC(C)=O)[C@]5(CC)C=CCN6CC[C@]43[C@@H]65)C2)C1 [vincristine, reference compound]
- reduction of the IC50 value of the combination partner in combination with substance A (K562 cells): approx. 65%

Structure (SMILES): CCCCCCCCCCCCSCC(COP(=O)(O)OC[C@H]1O[C@@H](n2cc(F)c(=O)[nH]c2=O)C[C@@H]1O)OCCCCCCCCCC (some centres unmarked) [Substance A, 5-fluoro-2′-deoxyuridine-5′-phosphoric acid-(3-dodecyl-thio-2-decyloxy)propylester]
- percent inhibition relative to the control values of group 1, Day 21 (MethA fibrosarcoma; 3 mg/kg/application, day 21): 59.1%
- percent inhibition relative to the control values of group 1, Day 28 (MethA fibrosarcoma; 3 mg/kg/application): 57.6%
- percent inhibition relative to the control values of group 1, Day 21 (MethA fibrosarcoma; 30 mg/kg/application, day 21): 89.7%
- percent inhibition relative to the control values of group 1, Day 28 (MethA fibrosarcoma; 30 mg/kg/application): 87.2%
- percent inhibition relative to the control values of group 1, Day 21 (MethA fibrosarcoma; 100 mg/kg/application, day 21): 91.1%
- percent inhibition relative to the control values of group 1, Day 28 (MethA fibrosarcoma; 100 mg/kg/application): 92.2%
- Effect on tumor growth (antitumoral / antiproliferative), in words (MethA fibrosarcoma): inhibits tumor growth highly significantly and in a dose- and time-dependent fashion
- Tumor volume Day 21 (MethA fibrosarcoma; [2]): 1.649 mm^3
- Tumor volume Day 28 (MethA fibrosarcoma; 3 mg/kg/application): 4.163 mm^3
- Tumor volume Day 21 (MethA fibrosarcoma; 30 mg/kg/application, day 21): 416 mm^3
- Tumor volume Day 28 (MethA fibrosarcoma; 30 mg/kg/application): 1.254 mm^3
- Tumor volume Day 21 (MethA fibrosarcoma; 100 mg/kg/application, day 21): 357 mm^3
- Tumor volume Day 28 (MethA fibrosarcoma; 100 mg/kg/application): 762 mm^3
- reduction of the IC50 value of substance A in combination with camptothecin (K562 cells; [3]): approx. 40%
- reduction of the IC50 value of substance A in combination with cisplatin (K562 cells; [3]): 25%
- reduction of the IC50 value of substance A in combination with doxorubicin (K562 cells; [3]): approx. 30%
- reduction of the IC50 value of substance A in combination with vincristine (K562 cells; [3]): approx. 60%
- Blood levels: HB ([1]; 1 g/kg): 17850 ± 390 µg/mL
- Blood levels: HCT ([1]; 1 g/kg): 47.93 ± 1.16%
- Blood levels: MCH ([1]; 1 g/kg): 19.28 ± 0.22 pg
- Blood levels: MCHC ([1]; 1 g/kg): 37.29 ± 0.44 g/dL
- Blood levels: MCV ([1]; 1 g/kg): 51.50 ± 0.58 fL
- Blood levels: PLT ([1]; 1 g/kg): 1153 ± 41 k/μl
- Blood levels: RBC ([1]; 1 g/kg): 9.31 ± 0.23 M/μl
- Blood levels: WBC ([1]; 1 g/kg): 14.34 ± 2.18 k/μl
- Organ weight: Brain ([1]; 1 g/kg): 399 ± 8 g
- Organ weight: Colon ([1]; 1 g/kg): 373 ± 15 g
- Organ weight: Heart ([1]; 1 g/kg): 133 ± 4 g
- Organ weight: Intestines ([1]; 1 g/kg): 1.622 ± 61 g
- Organ weight: Kidney ([1]; 1 g/kg): 361 ± 17 g
- Organ weight: Liver ([1]; 1 g/kg): 1.602 ± 42 g
- Organ weight: Lungs ([1]; 1 g/kg): 226 ± 9 g
- Organ weight: Ovaries ([1]; 1 g/kg): 183 ± 17 g
- Organ weight: Spleen ([1]; 1 g/kg): 125 ± 9 g
- Organ weight: Stomach ([1]; 1 g/kg): 232 ± 7 g
- Bone marrow cell count ([1]; 1 g/kg): 28.48 ± 0.86 M/Femur
- Body weight ([1]; 1 g/kg): 28.7^c g
- Tolerability parameters compared to the placebo-treated control group, in words ([1]; 1 or 1.5 g/kg of body weight): no significant reduction in the tolerability parameters
- Blood levels: HB ([1]; 1.5 g/kg): 15790 ± 920 µg/mL
- Blood levels: HCT ([1]; 1.5 g/kg): 43.42 ± 2.77%
- Blood levels: MCH ([1]; 1.5 g/kg): 19.09 ± 0.37 pg
- Blood levels: MCHC ([1]; 1.5 g/kg): 36.53 ± 0.38 g/dL
- Blood levels: MCV ([1]; 1.5 g/kg): 52.09 ± 0.81 fL
- Blood levels: PLT ([1]; 1.5 g/kg): 1431 ± 172 k/μl
- Blood levels: RBC ([1]; 1.5 g/kg): 8.34 ± 0.56 M/μl
- Blood levels: WBC ([1]; 1.5 g/kg): 16.97 ± 6.05 k/μl
- Organ weight: Brain ([1]; 1.5 g/kg): 387 ± 18 g
- Organ weight: Colon ([1]; 1.5 g/kg): 392 ± 29 g
- Organ weight: Heart ([1]; 1.5 g/kg): 126 ± 9 g
- Organ weight: Intestines ([1]; 1.5 g/kg): 1.807 ± 112 g
- Organ weight: Kidney ([1]; 1.5 g/kg): 351 ± 26 g
- Organ weight: Liver ([1]; 1.5 g/kg): 1.739 ± 81 g
- Organ weight: Lungs ([1]; 1.5 g/kg): 206 ± 9 g
- Organ weight: Ovaries ([1]; 1.5 g/kg): 203 ± 33 g
- Organ weight: Spleen ([1]; 1.5 g/kg): 204 ± 26 g
- Organ weight: Stomach ([1]; 1.5 g/kg): 232 ± 16 g
- Bone marrow cell count ([1]; 1.5 g/kg): 31.44 ± 1.51 M/Femur
- Body weight ([1]; 1.5 g/kg): 27.9^c g
- Bone marrow suppression, hematotoxicity or unspecific-toxic organ intolerance, in words [1, 4]: no evidence of bone marrow suppression, hematotoxicity or unspecific-toxic organ intolerance
- Unspecific-toxic properties under in-vivo conditions, in words [1, 4]: no unspecific-toxic properties

Structure (SMILES): N.N.[Cl][Pt][Cl] [cisplatin, reference compound]
- reduction of the IC50 value of the combination partner in combination with substance A (K562 cells): 50%

Structure (SMILES): CC[C@@]1(O)C(=O)OCc2c1cc1n(c2=O)Cc2cc3ccccc3nc2-1 [camptothecin, reference compound]
- reduction of the IC50 value of the combination partner in combination with substance A (K562 cells): approx. 90%

Structure (SMILES): COc1cccc2c1C(=O)c1c(O)c3c(c(O)c1C2=O)C[C@@](O)(C(=O)CO)C[C@@H]3O[C@H]1C[C@H](N)[C@H](O)[C@H](C)O1 [doxorubicin, reference compound]
- reduction of the IC50 value of the combination partner in combination with substance A (K562 cells): approx. 50%

Reference: patent US20050090659A1, “Phospholepid derivatives of nucleosides as antitumaorl medicaments” (priority 2001, published 2005)
